Results reported in patent US20220287995A1, “COMPOSITIONS AND METHODS FOR INHIBITING BACTERIAL VIRULENCE AND FLIM-BASED DEVICE AND METHOD FOR ANTIBIOTIC SUSCEPTIBILITY TESTING” (THE REGENTS OF THE UNIVERSITY OF CALIFORNIA, priority 2019, published 2022).
Entries after “also recorded” stand apart in the source; their conditions may differ.

Experiments:
[1] = tested on: surface-attached P. aeruginosa; experiment: Image-based virulence (host killing) assay with amoeba host cells and calcein-AM; assay type: cell-based, Pseudomonas aeruginosa; settings: for host-killing activity (host killing index): surface-attached wild-type P. aeruginosa in rich (PS:DB) medium, supplemented at 3 hours at 0.2%, assessed after 6 hours of growth, amoeba host cells
Description: P. aeruginosa cells were assayed using an image-based virulence assay as described previously (12, 50). P. aeruginosa strains were cultured in PS:DB, diluted 1:100 into 60×15 mm plastic petri dishes (Corning, Corning, N.Y.), cultured for 4 to 6 hours by shaking at 100 rpm, and harvested. Planktonic cells were assayed by transferring 10 μL of culture from the petri dish to a new petri dish, mixing with an equal volume of D. discoideum that were grown to an OD600 of 0.2-0.5, and immobilizing by placing an agar pad on top of the mixture (FIG. 11C). Agar pads were made using Bacto agar at a concentration of 1%, DB buffer, and 1 μM calcein acetoxymethyl (AM) ester (Molecular Probes, Eugene, Oreg.), and were cut into 1.5×1.5 cm squares (12, 50). Surface-attached cells were assayed by aspirating planktonic cells from the culture, washing with DB buffer to remove planktonic cells, mixing with an equal volume of D. discoideum, and immobilizing by placing an agar pad on top of the mixture (FIG. 11C) (50). The immobilized planktonic or surface-attached P. aeruginosa and D. discoideum were incubated at room temperature for 1 hour and imaged using fluorescence microscopy. The host killing index (12, 50) was computed as the average ratio of calcein-AM fluorescence to cell area in individual amoeba cells for 30 to 200 cells in each experiment.
Fluorescence microscopy to assess calcein-AM fluorescence was performed using a Nikon Eclipse Ti-E microscope (Nikon, Melville, N.Y.) containing Nikon 10× Plan Fluor Ph1 (0.3 NA) and 20×S Plan Fluor Nikon (0.45 NA) objectives, a Sola light engine (Lumencor, Beaverton, Oreg.), an LED-DA/FI/TX filter set (Semrock, Rochester, N.Y.) containing a 409/493/596 dichroic and 474/27 nm and 525/45 nm filters for excitation and emission, respectively, and a Hamamatsu Orca Flash 4.0 V2 camera (Hamamatsu, Bridgewater, N.J.). Images were acquired using Nikon NIS-Elements and analyzed using custom built software written previously (12) in Matlab (Mathworks, Natick, Mass.).
For experiments in which strains cultured in PS:DB were supplemented with individual carbon sources (FIG. 5A-D), pyruvic acid, citric acid, […], glycerol, or glucose was added to cultures at a final concentration of 0.2% at 3 hours following a 1:100 dilution from an overnight culture. Cultures were harvested after 1 additional hour of growth for measurements of fluorescence lifetime and NADH and NAD^+ concentrations. For experiments in which surface-attached strains that were cultured in PS:DB media were treated with antimycin A (FIG. 5E-F), 10 μM antimycin A dissolved in 0.1% ethanol, 0.1% ethanol, alone, or 10 μM antimycin A dissolved in 0.1% ethanol and 0.2% citric acid were added after 3 hours of growth following a 1:100 dilution from an overnight culture. Host killing was measured after an additional 1 to 3 hours of growth (total of 4 to 6 hours of growth).

P. aeruginosa = experiment: Colorimetric enzyme-cycling assay of NADH and NAD+ concentrations; assay type: cell-based, Pseudomonas aeruginosa; settings: for NADH/NAD+ ratio / total concentrations of NADH and NAD+ / change in NADH/NAD+ ratio / change in total NAD(H) production: surface-attached; for NADH/NAD+ ratio / total concentrations of NADH and NAD+: mid-exponential phase; for change in NADH/NAD+ ratio / change in total NAD(H) production: rich (PS:DB) medium, carbon source 0.2% added at 3 hours, harvested after 1 additional hour
Description: The concentrations of reduced and oxidized nicotinamide adenine dinucleotide (NADH, NAD^+) were measured using a colorimetric enzyme-cycling assay as described previously (45). P. aeruginosa strains were cultured overnight in PS:DB, diluted 1:100 into 60×15 mm plastic petri dishes (Corning, Corning, N.Y.) containing the same medium, and grown for 4 to 6 hours. Alternatively, strains were cultured overnight in minimal medium, diluted 1:100 into plastic petri dishes containing modified minimal medium with single carbon sources, and grown to an OD600 of 0.2. Cultures were harvested in a glove box chamber (Bel-Art, Wayne, N.J.) that had been vacuumed to remove air and flushed with nitrogen constantly throughout the experiment to prevent oxidation of NADH. Subsequent steps were performed and solutions were prepared in the glove box unless otherwise indicated. Solutions containing 0.05 to 1 μM of NADH (Sigma) or NAD^+ (Sigma) were included as calibration controls.
Planktonic cells were isolated from petri dishes, pelleted by centrifugation at 16,000×g for 1 min, the residual supernatant was discarded and the pellet was immediately resuspended in 0.2 M NaOH or HCl to extract NADH or NAD^+, respectively, as described previously (45, 46). Surface-attached cells were harvested by aspirating planktonic cells from petri dishes, washing with DB buffer or modified minimal medium with no carbon source for strains cultured in PS:DB or modified minimal medium A containing single carbon sources, respectively, adding 0.2 M NaOH or HCl, and scraping surfaces with a cell scraper (Sarstedt, Nümbrecht, Germany). As a control, the Δphz12 strain was cultured overnight in modified MOPS synthetic medium (46), diluted 1:100 in the same medium in culture tubes for 1 to 4 hours, pelleted by centrifugation, resuspended in 0.2 M NaOH or HCl, as described previously (46). The resuspensions in NaOH or HCl were neutralized using equal volume of 0.1 M HCl or NaOH, respectively, and portions were assayed for protein content, NADH, and NAD^+. Resuspensions were assayed for protein content using a BCA assay kit (ThermoFisher Scientific, Waltham, Mass.) using a 50:1 mixture of solutions A and B from the kit. Solutions were incubated at 37° C. for 30 min and measured for absorbance at 562 nm. Resuspensions that were not used for the BCA assay were normalized by protein content by diluting in Millipore-filtered water.
NADH and NAD^+ concentrations were determined by following the protocol described previously (45). Briefly, normalized resuspensions were centrifuged at 16,000×g for 10 minutes at 4° C. to remove cell debris and mixed with a reaction mixture containing 40 mM EDTA, 1 M bicine (Sigma), 4.2 mM 3-(4,5-dimethylthiazol-2-yl)-2,5-diphenyltetrazolium bromide (Sigma), 16.6 mM phenazine ethosulfate (Sigma), 1 mg/mL alcohol dehydrogenase (Sigma), and ethanol, and the absorbance at 570 nm of the solution was measured in a 96-well plate (Corning Corning, N.Y.) at 30° C. every 30 seconds for 30 minutes using a BioTek Synergy HTX reader (BioTek, Winooski, Vt.). The reaction mixture and the normalized resuspensions were aliquoted and mixed inside the glove box. The centrifugation and absorbance measurements were performed outside of the glove box. The absorbance per unit time was determined by fitting data on the initial velocity of enzyme activity, acquired between 2 to 10 minutes of the absorbance measurements. The absorbances per unit time for the NADH and NAD^+ calibration controls were linearly fit for the full range of calibration concentrations to establish a linear equation that relates the absorbance per unit time and NAD(H) concentration. The NAD(H) concentrations of the planktonic and surface-attached cell resuspensions were determined by inputting the respective absorbance per unit time fits of the samples into these equations. […]

[2] = planktonic cells, modified minimal medium, single carbon source at 0.2%
[3] = modified minimal medium, single carbon source at 0.2%

Compound | effect on the earlier virulence induction by antimycin A ([1]; co-treatment at 3 hours with 0.2% citrate and 10 μM antimycin A in 0.1% ethanol, surface-attached) | host-killing activity (host killing index) [1] | NAD(H) concentration relative to glycerol (P. aeruginosa; [2]) | NADH/NAD+ ratio relative to glycerol (P. aeruginosa; [2]) | NADH/NAD+ ratio (P. aeruginosa; [3]) | total concentrations of NADH and NAD+ (P. aeruginosa; [3]) | change in NADH/NAD+ ratio (P. aeruginosa) | change in total NAD(H) production (P. aeruginosa)
O=C(O)CC(O)(CC(=O)O)C(=O)O [citrate] | inhibited | inhibited virulence; also recorded: abolished host-killing activity | slightly lower | slightly greater | increasing ratios | intermediate | greatest increases | greatest decreases; also recorded: decreased
OCC(O)CO [glycerol] |  | no effect on host-killing activity |  |  | increasing ratios | intermediate | smallest changes | relatively small impacts
